Three compounds from ChEMBL document CHEMBL1133307, “Synthesis of 5-substituted analogues of huperzine A” (Bioorg Med Chem Lett, 2000) can be followed below.

For orientation: inhibition means the percentage by which the read-out fell short of the control. The low end stands for little suppression, the high end for strong suppression.

Experiment [1] addresses Acetylcholinesterase (Homo sapiens) (UniProt P22303). The experiment can be described thus: Percent inhibition against acetylcholinesterase (ACHE) at a concentration of 35 uM.
For experiment [2] the target is unchanged. The experiment is described as follows: Percent inhibition against acetylcholinesterase (ACHE) at a concentration of 88 uM.
Experiment [3] shares this target. The experiment can be described thus: Percent inhibition against acetylcholinesterase (ACHE) at a concentration of 47 uM.

Sequence of Acetylcholinesterase (Homo sapiens) (P22303 whole entry): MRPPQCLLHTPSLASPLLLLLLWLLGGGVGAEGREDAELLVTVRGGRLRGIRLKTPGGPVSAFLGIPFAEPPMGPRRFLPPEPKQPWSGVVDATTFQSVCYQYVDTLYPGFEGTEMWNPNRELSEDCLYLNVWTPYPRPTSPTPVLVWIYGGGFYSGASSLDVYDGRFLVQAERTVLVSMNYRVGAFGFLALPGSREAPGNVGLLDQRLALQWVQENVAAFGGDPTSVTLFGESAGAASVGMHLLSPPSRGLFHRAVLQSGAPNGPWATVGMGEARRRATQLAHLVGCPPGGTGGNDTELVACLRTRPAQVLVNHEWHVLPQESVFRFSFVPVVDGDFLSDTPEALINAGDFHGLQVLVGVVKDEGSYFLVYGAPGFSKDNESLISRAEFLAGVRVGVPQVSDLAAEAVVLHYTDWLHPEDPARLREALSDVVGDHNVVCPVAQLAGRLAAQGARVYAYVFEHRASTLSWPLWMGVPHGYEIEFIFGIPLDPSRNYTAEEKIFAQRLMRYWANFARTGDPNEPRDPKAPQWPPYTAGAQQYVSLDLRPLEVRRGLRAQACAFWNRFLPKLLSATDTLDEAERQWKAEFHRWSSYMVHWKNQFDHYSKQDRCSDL

`C/C=C1\C2C=C(C)CC1(O)c1ccc(O)nc1C2` (stereo not drawn): the inhibition in experiment [1] was 50%. On to `C/C=C1\C2C=C(C)CC1(OC(C)=O)c1ccc(O)nc1C2` (stereo not drawn), for which the inhibition in experiment [2] turned out to be 6.36%. Compound `C/C=C1\C2C=C(C)CC1(F)c1ccc(O)nc1C2` (stereo not drawn) displayed an inhibition in experiment [3] of 50%.
